34 molecules from US11400094B2, “2H-pyrazolo[4,3-d]pyrimidine compounds as toll-like receptor 7 (TLR7) agonists and methods and uses therefor” (BRISTOL-MYERS SQUIBB COMPANY, priority 2018, dated 2022) can be followed below.

The first assay deals with T1, human TLR7 (Homo sapiens, UniProt Q9NYK1).
T1 construct: host or cells: HEK-Blue TLR7 cells (engineered human embryonic kidney cells)
T1 sequence (Q9NYK1 27-1049): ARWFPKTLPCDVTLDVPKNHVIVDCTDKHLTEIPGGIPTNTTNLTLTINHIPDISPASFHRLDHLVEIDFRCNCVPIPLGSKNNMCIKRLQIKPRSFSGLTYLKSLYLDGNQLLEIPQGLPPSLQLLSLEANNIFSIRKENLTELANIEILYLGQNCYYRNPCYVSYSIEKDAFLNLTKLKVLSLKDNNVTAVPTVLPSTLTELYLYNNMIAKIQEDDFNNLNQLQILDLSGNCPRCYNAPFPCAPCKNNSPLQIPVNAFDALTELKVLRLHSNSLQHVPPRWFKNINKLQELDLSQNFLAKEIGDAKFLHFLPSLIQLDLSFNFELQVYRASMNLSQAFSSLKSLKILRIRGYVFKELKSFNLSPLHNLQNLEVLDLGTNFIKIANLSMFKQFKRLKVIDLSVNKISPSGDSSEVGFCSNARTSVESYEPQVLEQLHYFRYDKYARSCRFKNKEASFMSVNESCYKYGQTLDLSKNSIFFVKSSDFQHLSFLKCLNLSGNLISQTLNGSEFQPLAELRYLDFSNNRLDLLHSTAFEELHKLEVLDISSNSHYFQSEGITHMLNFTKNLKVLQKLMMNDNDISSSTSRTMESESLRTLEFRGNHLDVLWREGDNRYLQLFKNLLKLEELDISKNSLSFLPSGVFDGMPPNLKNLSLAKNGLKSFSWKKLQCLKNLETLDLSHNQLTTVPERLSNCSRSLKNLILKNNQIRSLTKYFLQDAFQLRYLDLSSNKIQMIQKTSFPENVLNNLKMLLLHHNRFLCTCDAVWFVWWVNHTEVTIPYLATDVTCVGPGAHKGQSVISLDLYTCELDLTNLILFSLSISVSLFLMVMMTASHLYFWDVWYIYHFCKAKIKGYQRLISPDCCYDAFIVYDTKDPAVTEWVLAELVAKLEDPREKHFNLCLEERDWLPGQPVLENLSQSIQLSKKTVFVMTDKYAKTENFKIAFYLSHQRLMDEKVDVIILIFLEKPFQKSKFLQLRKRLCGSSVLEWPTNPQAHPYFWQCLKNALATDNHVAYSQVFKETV
The experiment in a line: HEK-Blue TLR7 reporter assay (human TLR7 agonist activity, SEAP reporter). Format: cell-based. As to conditions: Table A, formula IIa compounds; HEK-Blue TLR7 cells, 18 h treatment, SEAP read-out. On the technique in general: In a reporter assay the amount or activity of a reporter protein is the signal.
Method: This procedure describes a method for assaying human TLR7 (hTLR7) agonist activity of the compounds disclosed in this specification.
HEK-Blue™ TLR7 cells were added to each well of a 384-well tissue-culture plate (15,000 cells per well) and incubated 16-18 h at 37° C., 5% CO2. […] After 18 h treatment ten microliters of freshly-prepared Quanti-Blue™ reagent (Invivogen) was added to each well, incubated for 30 min (37° C., 5% CO2) and SEAP levels measured using an Envision plate reader (OD=620 nm).
For the molecule `CCCCNc1nc(N)nc2cn(Cc3ccc(CN4CCCCC4)cc3OC)nc12` [IIa-31], the EC50 is 410 nM.
The same measure, in the same setting: to `CCCCNc1nc(N)nc2cn(Cc3ccc(CN4CCCC4)cc3OC)nc12` [IIa-32] belongs 600 nM; to `CCCCNc1nc(N)nc2cn(Cc3ccc(CO)cc3OC)nc12` [IIa-14], 550 nM.
Same read-out and setting: to `CCCCNc1nc(N)nc2cn(Cc3ccc(CNCCO)cc3OC)nc12` [IIa-03] belongs 1000 nM.
On to `CCCCNc1nc(N)nc2cn(Cc3ccc(CNC4CCOCC4)cc3OC)nc12` [IIa-19], for which the half-maximal effective concentration (EC50) stood at 320 nM.
For the molecule `CCCCNc1nc(N)nc2cn(Cc3ccc(CNCC4COC4)cc3OC)nc12` [IIa-07], the EC50 was 610 nM.
On the same count and under the same terms, the value for `CCCCNc1nc(N)nc2cn(Cc3ccc(CN4CCOCC4)cc3OC)nc12` [IIa-30] was 580 nM; that for `CCCCNc1nc(N)nc2cn(Cc3ccc(CN4CCN(C)CC4)cc3OC)nc12` [IIa-36] was 520 nM; that for `CCCCNc1nc(N)nc2cn(Cc3ccc(CNCc4ccc(N)cc4)cc3OC)nc12` [IIa-10] was 270 nM.
Still for that read-out and setting: the value for `CCCCNc1nc(N)nc2cn(Cc3ccc(CNC4CCC(O)CC4)cc3OC)nc12` (stereo not shown) [IIa-08] was 650 nM; that for `CCCCNc1nc(N)nc2cn(Cc3ccc(CN4CC(CCO)C4)cc3OC)nc12` [IIa-23] was 303 nM; that for `CCCCNCc1ccc(Cn2cc3nc(N)nc(NCCCC)c3n2)c(OC)c1` [IIa-33] was 810 nM.
Same read-out and setting: the value for `CCCCNc1nc(N)nc2cn(Cc3ccc(CNC4COC4)cc3OC)nc12` [IIa-15] was 300 nM.
In the case of `CCCCNc1nc(N)nc2cn(Cc3ccc(CNCC4CC(O)C4)cc3OC)nc12` (stereo not shown) [IIa-24], the EC50 worked out at 130 nM.
Still for that read-out and setting: the value for `CCCCNc1nc(N)nc2cn(Cc3ccc(CN4CCCNCC4)cc3OC)nc12` [IIa-29] was 760 nM; that for `CCCCNc1nc(N)nc2cn(Cc3ccc(CN4CCNCC4)cc3OC)nc12` [IIa-02] was 510 nM; that for `CCCCNc1nc(N)nc2cn(Cc3ccc(Cn4ccnc4)cc3OC)nc12` [IIa-21] was 190 nM.
On the same count and under the same terms, to `CCCCNc1nc(N)nc2cn(Cc3ccc(CNCC(C)(C)O)cc3OC)nc12` [IIa-20] belongs 280 nM; to `CCCCNc1nc(N)nc2cn(Cc3ccc(CNC(C)(C)C)cc3OC)nc12` [IIa-34], 550 nM; to `CCCCNc1nc(N)nc2cn(Cc3ccc(CNC4(CO)CCCC4)cc3OC)nc12` [IIa-28], 430 nM.
Still for that read-out and setting: the value for `CCCCNc1nc(N)nc2cn(Cc3ccc(CNCc4ccncc4)cc3OC)nc12` [IIa-05] was 450 nM.
Take `CCC[C@@H](CCO)Nc1nc(N)nc2cn(Cc3ccc(CO)cc3OC)nc12` [IIa-35]: the EC50 was 2100 nM.
Still for that read-out and setting: to `CCCCNc1nc(N)nc2cn(Cc3ccc(CNCCOC)cc3OC)nc12` [IIa-22] belongs 200 nM; to `CCCCNc1nc(N)nc2cn(Cc3ccc(CNC4CC(O)C4)cc3OC)nc12` (stereo not shown) [IIa-09], 420 nM; to `CCCCNc1nc(N)nc2cn(Cc3ccc(CNCCCN)cc3OC)nc12` [IIa-04], 1600 nM.
Still for that read-out and setting: the value for `CCCCNc1nc(N)nc2cn(Cc3ccc(CN4CCN(CCO)CC4)cc3OC)nc12` [IIa-17] was 180 nM; that for `CCCCNc1nc(N)nc2cn(Cc3ccc(CNC4CCC4)cc3OC)nc12` [IIa-01] was 340 nM.
Same read-out and setting: the value for `CCCCNc1nc(N)nc2cn(Cc3ccc(CNCCS(C)(=O)=O)cc3OC)nc12` [IIa-11] was 540 nM; that for `CCCCNc1nc(N)nc2cn(Cc3ccc(CNc4ccc(CCO)cc4)cc3OC)nc12` [IIa-25] was 880 nM; that for `CCCCNc1nc(N)nc2cn(Cc3ccc(CN4CC5CC4CN5)cc3OC)nc12` (stereo not shown) [IIa-27] was 710 nM.
As for `CCCCNc1nc(N)nc2cn(Cc3ccc(CN(C)CCCO)cc3OC)nc12` [IIa-26], the EC50 was 194 nM.

The assay is the same for the next values; noted with them: Table B, formula IIb compounds; HEK-Blue TLR7 cells, 18 h treatment, SEAP read-out.
For `CCCCNc1nc(N)nc2cn(Cc3ccc(Oc4ccc(CNCCO)cc4)cc3OC)nc12` [IIb-02], the half-maximal effective concentration (EC50) is 1600 nM.
Consider `CCCCNc1nc(N)nc2cn(Cc3ccc(Oc4ccc(CO)cc4)nc3)nc12` [IIb-01], for which the 50% effective concentration (EC50) is 820 nM.
Still for that read-out and setting: to `CCCCNc1nc(N)nc2cn(Cc3ccc(Oc4ccc(CNCCO)cc4)nc3)nc12` [IIb-04] belongs 2100 nM.

The term EC50 denotes the concentration at which the effect is half-maximal.
